The test system of experiment [1] is serum lipids and serum lipid hydroperoxide. Briefly: Pharmacological test method B for anti-hyperlipidemic activity (serum lipids, 4 weeks feeding). The experiment is classed as in vivo, male Wistar strain rats. Details: AI Diff.: unit not given here. Conditions: for change in vivo at 1 % in diet: Rattus norvegicus, po, 672 h; for change in vivo at 1 % in diet / AI Diff. / HDL-C Diff. / LPO Diff. / PL Diff. / TG Diff.: versus control group; for TG % of diff. (Table 20) / TG Diff. (Table 20): Table 20, versus control group; for HDL-C rise compared with normal diet group: versus normal diet group. Here is the method:
Pharmacological test method B for anti-hyperlipidemic acitivity (the term "method B" was used in the present specification)
Male Wistar strain rats (100±1 g, each 8 rats were formed into a group except that the control group fed with a hyperlipidemic diet was formed of 16 rats) were used as test animals. A powdery diet (CE-2, supplied by Clea Japan, Inc.) was used as ordinary diet. The hyperlipidemic diet was prepared by fortifying the ordinary diet with cholesterol (1%) and cholic acid (0.5%). Each test compound (1%) for administration was admixed with the hyperlipidemic diet. Each two rats were kept in a cage and given the prescribed diet and water ad libitum. Thus the rats were fed for 4 weeks at a constant temperature of 23±1° C. and a constant R.H. of 55±5%. Finally, the rats were fasted from food except water for 16 hours (from 4 p.m. of the 28th test day to 8 a.m. of the 29th test day), and under anesthesia with pentbarbital sodium (tradename: Nembutal), blood was taken from each rat through the descending abdominal arota. Then, TC, HDL-C, TG, PL, and LPO in the serum were measured in the following manner.
A TC kit-K (supplied by Nippon Shoji Kaisha, Ltd.) was used. The principle of this determination is as follows: The ester of cholesterol in the serum is hydrolyzed with cholesterol-ester hydrolase into free cholesterol and fatty acids. All the free cholesterol is oxidized with cholesterol oxydase to form Δ^4 -cholestenone and hydrogen peroxide. Phenol and 4-aminoantipyrin are oxidatively condensed together by the formed hydrogen peroxide and peroxydase. The produced red quinone coloring matter is measured by colorimetry for absorbance at 500 nm using a spectrophotometer, thereby determining the TC:
The color-developing liquid (3.0 ml) is well mixed with the sample serum (0.02 ml). The mixture once heated at 37° C. for 15 minutes, is measured for absorbance at 500 nm with a spectrophotometer. The found absorbance is denoted by EA. On the other hand, the color-developing liquid (3.0 ml) is well mixed with the standard solution. The mixture is treated and measured for absorbance at 500 nm in the same manner as the above. This found absorbance is denoted by ES. Both EA and ES are determined with reference to the value of the blank test conducted using the color-developing liquid (3.0 ml) alone. [formula]
An HDL-C kit-N (supplied by Nippon Shoji Kaisha, Ltd.) was used. […] (VLDL) and lo density lipoprotein (LDL) in the serum is precipitated by the action of heparin. The precipitate is separated by centrifugation. High density lipoprotein (HDL) is dissolved in the separated supernatant. Esters of cholesterol in this fraction is hydrolyzed with cholesterol-ester hydrolase into free cholesterol and fatty acids. All the free cholesterol is oxidized with cholesterol oxydase to form Δ^4 -cholestenone and hydrogen peroxide. Phenol and 4-aminoantipyrine are oxidatively condensed together by the formed hydrogen peroxide and peroxydase. The produced red quinone coloring matter is measured by colorimetry for absorbance at 500 nm using a spectrophotometer, thereby determining the HDL-C.
A PL kit-K (supplied by Nippon Shoji Kaisha, Ltd.) was used for the determination. Lecithin, sphingomyelin, and lysolecithin are decomposed by phospholipase D into choline and phosphatidic acid, N-acylsphingosyl phosphate, or lysophosphatidic acid, respectively. The resulting choline is quantitatively decomposed by choline oxydase into hydrogen peroxide and betaine. With this hydrogen peroxide, and aid of peroxydase, phenol and 4-aminoantipyrin are condensed into red quinone pigment, then the absorbance at 500 nm of which is measured with a spectrophotometer, thereby determining the PL. […]

For experiment [2] the test system is unchanged. The experiment in a line: Pharmacological test method A for anti-hyperlipidemic activity (serum lipids, 2 weeks feeding). Format: in vivo, male Wistar strain rats. To be noted: for AI [(TC - HDL-C)/(HDL-C)] / HDL-C in serum / LPO in serum / PL in serum / TC in serum / TG in serum: 1% in hyperlipidemic diet, 2 weeks; for AI % of diff. / AI Diff. / HDL-C % of diff. / HDL-C Diff. / LPO % of diff. / LPO Diff. / PL % of diff. / PL Diff. / TC % of diff. / TC Diff. / TG % of diff. / TG Diff.: versus control group. The method in brief:
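Serum TC, HDL-C (heparin precipitation), PL, TG and LPO measured by colorimetric kits, largely at 500 nm, from abdominal aorta blood after 16 h fasting. Rats (male Wistar, 10/group) ate a cholesterol/cholic acid diet 10 g/day for 2 weeks, supplemented with 1% each of three cycloartane triterpenoids.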

Read-outs that look alike come from different tables or passages of the source.

Take `COc1ccc([N+](=O)[O-])cc1C(=O)OC1CCC23CC24CCC2(C)C(C(C)CCC=C(C)C)CCC2(C)C4CCC3C1(C)C` (centres unmarked) [Example 170, cycloartenyl ester of 2-methoxy-5-nitrobenzoic acid]: the change in vivo at 1 % in diet in experiment [1] (read-out: AI % of diff.) is -74.9%. The change in vivo at 1 % in diet in experiment [1] (read-out: HDL-C % of diff.) is 123%. Further, the change in vivo at 1 % in diet in experiment [1] (read-out: LPO % of diff.) is -14.1%. For the same compound, the change in vivo at 1 % in diet in experiment [1] (read-out: PL % of diff.) is -28.9%. Moreover, in experiment [1] (read-out: TG % of diff.), the change in vivo at 1 % in diet was -21.9%. In addition, in experiment [1], the “TG % of diff. (Table 20)” value was -37.5%, the “TG Diff. (Table 20)” value is -157.0 mg/dL, the “AI Diff.” value is given as -18.83 and the “HDL-C Diff.” value is reported as “+19.7 mg/dl”. Moreover, in experiment [1], the “LPO Diff.” value is -0.49 nmol/mL, the “PL Diff.” value was -51.1 mg/dL, the “TG Diff.” value was -17.8 mg/dL and the “HDL-C rise compared with normal diet group” value was “remarkable rises”.

For `CCC(=O)Oc1ccc(C=C(C)C(=O)OC2CCC34CC35CCC3(C)C(C(C)CCC=C(C)C)CCC3(C)C5CCC4C2(C)C)cc1OC` (stereo not drawn) [Example 113, cycloartenyl ester of 3-methoxy-4-propionyloxy-α-methyl cinnamic acid], the change in vivo at 1 % in diet in experiment [1] (read-out: AI % of diff.) is -63.5%. Besides, the change in vivo at 1 % in diet in experiment [1] (read-out: HDL-C % of diff.) came to 55.6%. The change in vivo at 1 % in diet in experiment [1] (read-out: LPO % of diff.) was -12.1%. For the same compound, the change in vivo at 1 % in diet in experiment [1] (read-out: PL % of diff.) was -29.7%. The change in vivo at 1 % in diet in experiment [1] (read-out: TG % of diff.) was -25.7%. Also, in experiment [1], the “TG % of diff. (Table 20)” value is -39.4%, the “TG Diff. (Table 20)” value was -164.7 mg/dL, the “AI Diff.” value was -15.96 and the “HDL-C Diff.” value was “+8.9 mg/dl”. In experiment [1], the “LPO Diff.” value was -0.42 nmol/mL, the “PL Diff.” value is -52.5 mg/dL and the “TG Diff.” value is -20.9 mg/dL.

Take `CCCOc1ccc(N)cc1C=C(C)C(=O)OC1CCC23CC24CCC2(C)C(C(C)CCC=C(C)C)CCC2(C)C4CCC3C1(C)C` (stereo not drawn) [Example 195, Cycloartenyl ester of 5-amino-2-propoxy-α-methylcinnamic acid]: in experiment [1] (read-out: AI % of diff.), the change in vivo at 1 % in diet was -88.3%. The change in vivo at 1 % in diet in experiment [1] (read-out: HDL-C % of diff.) worked out at 211%. Besides, in experiment [1] (read-out: LPO % of diff.), the change in vivo at 1 % in diet was -37.2%. For the same compound, the change in vivo at 1 % in diet in experiment [1] (read-out: PL % of diff.) was -34.2%. In experiment [1] (read-out: TG % of diff.), the change in vivo at 1 % in diet is -28.9%. In experiment [1], the “TG % of diff. (Table 20)” value is on record as -53.3%, the “TG Diff. (Table 20)” value is -223.1 mg/dL, the “AI Diff.” value is reported as -22.22 and the “HDL-C Diff.” value was “+33.7 mg/dl”. Besides, in experiment [1], the “LPO Diff.” value is -1.29 nmol/mL, the “PL Diff.” value was -60.4 mg/dL, the “TG Diff.” value is -23.5 mg/dL and the “HDL-C rise compared with normal diet group” value is reported as “remarkable rises”.

Turning to `COc1ccc(N)cc1C(=O)OC1CCC23CC24CCC2(C)C(C(C)CCC=C(C)C)CCC2(C)C4CCC3C1(C)C` (centres unmarked) [Example 171, cycloartenyl ester of 5-amino-2-methoxybenzoic acid], the change in vivo at 1 % in diet in experiment [1] (read-out: AI % of diff.) was -71.6%. Besides, in experiment [1] (read-out: HDL-C % of diff.), the change in vivo at 1 % in diet is 51.3%. In addition, in experiment [1] (read-out: LPO % of diff.), the change in vivo at 1 % in diet is -36%. In experiment [1] (read-out: PL % of diff.), the change in vivo at 1 % in diet is -33%. Further, in experiment [1] (read-out: TG % of diff.), the change in vivo at 1 % in diet is -19.3%. Besides, in experiment [1], the “TG % of diff. (Table 20)” value is -53.0%, the “TG Diff. (Table 20)” value was -221.6 mg/dL, the “AI Diff.” value was -18.02 and the “HDL-C Diff.” value is recorded as “+8.2 mg/dl”. Further, in experiment [1], the “LPO Diff.” value was -1.25 nmol/mL, the “PL Diff.” value is -58.4 mg/dL and the “TG Diff.” value was -15.7 mg/dL.

`C=C(CCC(C)C1CCC2(C)C3CCC4C(C)(C)C(OC(=O)c5ccc(O)c(OC)c5)CCC45CC35CCC12C)C(C)C` (centres unmarked) [Example 86, 24-Methylenecycloartanyl ester of 4-hydroxy-3-methoxybenzoic acid]: in experiment [2], the “AI [(TC - HDL-C)/(HDL-C)]” value was 0.802, the HDL-C in serum was found to be 91.9 mg/dL, the LPO in serum is 2.06 nmol/mL and the PL in serum was 163.2 mg/dL. Also, in experiment [2], the TC in serum was found to be 165.6 mg/dL, the TG in serum amounted to 33.1 mg/dL, the “AI % of diff.” value was -20.0% and the “AI Diff.” value is -0.200. Further, in experiment [2], the “HDL-C % of diff.” value was -4.5%, the “HDL-C Diff.” value is -4.3 mg/dL, the “LPO % of diff.” value is given as -11.6% and the “LPO Diff.” value was -0.27 nmol/mL. Further, in experiment [2], the “PL % of diff.” value is listed as -9.8%, the “PL Diff.” value is -17.7 mg/dL, the “TC % of diff.” value is listed as -14.0% and the “TC Diff.” value was -27.0 mg/dL. In experiment [2], the “TG % of diff.” value is reported as -0.3% and the “TG Diff.” value was -0.1 mg/dL.

With `CC(C)=C(C)CCC(C)C1CCC2(C)C3CCC4C(C)(C)C(OC(=O)c5ccc(O)c(O)c5)CCC45CC35CCC12C` (centres unmarked) [Example 39, cyclobranyl-3,4-dihydroxybenzoate], in experiment [2], the “AI [(TC - HDL-C)/(HDL-C)]” value was determined as 0.803, the HDL-C in serum came out at 98.1 mg/dL, the LPO in serum was determined as 1.99 nmol/mL and the PL in serum came to 155.1 mg/dL. For the same compound, in experiment [2], the TC in serum was 176.9 mg/dL, the TG in serum amounted to 39.8 mg/dL, the “AI % of diff.” value is recorded as -52.3% and the “AI Diff.” value is given as -0.881. Moreover, in experiment [2], the “HDL-C % of diff.” value is recorded as “+21.2%”, the “HDL-C Diff.” value is listed as “+17.2 mg/dl”, the “LPO % of diff.” value is listed as -14.0% and the “LPO Diff.” value is -0.32 nmol/mL. In addition, in experiment [2], the “PL % of diff.” value is recorded as -13.7%, the “PL Diff.” value was -24.6 mg/dL, the “TC % of diff.” value is on record as -18.5% and the “TC Diff.” value was -40.2 mg/dL. Further, in experiment [2], the “TG % of diff.” value is given as -6.9% and the “TG Diff.” value is -3.0 mg/dL.

With `CC(C)=C(C)CCC(C)C1CCC2(C)C3CCC4C(C)(C)C(OC(=O)c5ccccc5N)CCC45CC35CCC12C` (centres unmarked) [Example 47, cyclobranyl-o-aminobenzoate], in experiment [2], the “AI [(TC - HDL-C)/(HDL-C)]” value came to 1.811, the HDL-C in serum came to 53.4 mg/dL, the LPO in serum was 2.03 nmol/mL and the PL in serum was found to be 140.3 mg/dL. Besides, in experiment [2], the TC in serum stood at 150.1 mg/dL, the TG in serum is 20.4 mg/dL, the “AI % of diff.” value is -1.9% and the “AI Diff.” value is given as -0.036. In experiment [2], the “HDL-C % of diff.” value is -9.0%, the “HDL-C Diff.” value is -5.3 mg/dL, the “LPO % of diff.” value is reported as -13.2% and the “LPO Diff.” value is -0.31 nmol/mL. For the same compound, in experiment [2], the “PL % of diff.” value is -5.5%, the “PL Diff.” value is -8.1 mg/dL, the “TC % of diff.” value was -10.2% and the “TC Diff.” value is -17.0 mg/dL. Besides, in experiment [2], the “TG % of diff.” value is listed as -17.7% and the “TG Diff.” value is -4.4 mg/dL.

Values taken from patent publication US4748161A, “Triterpenyl esters of organic acids and hypolipidemic agents composed of them” (Amano Pharmaceutical Co., Ltd., priority 1984, dated 1988).
